We go through 5 compounds from patent publication US9458101B2 (priority 2009, dated 2016).

Data set [1] has as its system A549, HeLa, MCF-7 and CEM cell lines. The data set can be described thus: Cytotoxicity, mean over A549, HeLa, MCF-7 and CEM cell lines. Particulars: for cytotoxicity compared with colchicine: cytotoxicity assays; for IC50 [log10 M] (mean logIC50): mean over A549, HeLa, MCF-7 and CEM cell lines. An excerpt:
(§1) Cell lines used were A549 (Human lung carcinoma), HeLa (Human cervical carcinoma), MCF-7 (Human mammary gland adenocarcinoma), CEM (Human T-lymphoblastoid from ALL (Acute lymphoblastic leukemia)), M010B (Human glioma), M006X (Human glioma) and Jurkat (Human T-cell leukemia).
(§2) A primary MTS assay was used to test the optimal number of cells for cytotoxicity assays. Cells were trypsinized, counted and introduced into seven lanes of a 96-well plate at different cell numbers (eight replicates per lane). Optimal cell numbers were determined after 72 and 96 hours of growth and were used in subsequent cytotoxicity assays. […] Cell viability was determined using the Cell Titer 96 AQueous One Solution Cell Proliferation Assay (Promega, U.S.A.).
(§3) [formula] […] Itop is the response obtained at very low/no drug concentration. The data and all parameters were normalized to Itop−Ibot, a measure of the maximum effect of the drug.
Cytotoxicity screening was performed on a number of cell lines based on the cancer of origin and differing morphologies.

Another data set concerns M006X (Human glioma). The data set can be described thus: Cytotoxicity testing (MTS) on M006X. In kind it is cell-based. The protocol:
as §1
(§4) A series of dilutions were prepared and a wavelength scan of the diluted solution was used to determine the wavelength of maximum absorbance for each compound. Five standardized drug concentrations were scanned at this pre-determined wavelength to obtain an estimate of the compound's extinction coefficient.
as §2
(§5) Fits were performed using a dose-response model ideal for data showing an initial response plateau, a transition region, and a final response plateau.
as §3

The next data set has as its system M010B (Human glioma). The data set can be described thus: Cytotoxicity testing (MTS) on M010B. In kind it is cell-based. The protocol:
as §1, §4, §2, §5, §3

The subject of data set [2] is A549 (Human lung carcinoma). The data set can be described thus: Cytotoxicity testing (MTS) on A549. Type of data set: cell-based. The protocol: as §1, §4, §2, §5, §3
The test system of data set [3] is HeLa (Human cervical carcinoma). The data set can be described thus: Cytotoxicity testing (MTS) on HeLa. In kind it is cell-based. On the procedure:
as §1, §4, §2, §5, §3

In data set [4] the test system is MCF-7 (Human mammary gland adenocarcinoma). The data set can be described thus: Cytotoxicity testing (MTS) on MCF-7. In kind it is cell-based. The protocol:
as §1, §4, §2, §5, §3

For data set [5], the system named is CEM (Human T-lymphoblastoid from ALL). The data set can be described thus: Cytotoxicity testing (MTS) on CEM. In kind it is cell-based. The protocol: as §1, §4, §2, §5, §3

Take `CCOc1cc2c(c(OC)c1OC)-c1ccc(SC)c(=O)cc1[C@@H](NC(C)=O)CC2` [Compound 42, N-[(7S)-3-ethoxy-1,2-dimethoxy-10-methylsulfanyl-9-oxo-5,6,7,9-tetrahydrobenzo[α]heptalen-7-yl]acetamide]: in data set [1] (average values of Table 3), the “average IC50 values compared with colchicine” value was “stronger than colchicine”. Moreover, in data set [1], the “cytotoxicity compared with colchicine” value was “consistently the most effective”. Further, the “IC50 [log10 M] (mean logIC50)” value in data set [1] was −8.44 ± 0.11 log10 M. Moreover, the “Fraction of cells that survive at the highest drug concentrations (Ibot)” value (shortened to “Fraction of cells that survive”) was 0.184 ± 0.021 in the data set on M006X (Human glioma); 0.327 ± 0.023 with M010B (Human glioma); 0.256 ± 0.015 in data set [2]; 0.046 ± 0.026 in data set [3]; 0.538 ± 0.010 in data set [4]; 0.026 ± 0.018 in data set [5]. Also, the logIC50 with M006X (Human glioma) is listed as −8.83 ± 0.08 log10 M; with M010B (Human glioma), −8.27 ± 0.12 log10 M; in data set [2] it was −8.37 ± 0.10 log10 M; in data set [3], −8.47 ± 0.14 log10 M; in data set [4], −8.28 ± 0.10 log10 M; in data set [5], −8.64 ± 0.09 log10 M.

In the case of “N-[(7S)-2,3,10-trimethoxy-9-oxo-1-(((3-methoxy)propan)oxy)(3-methoxy))-5,6,7,9-tetrahydrobenzo[α]heptalen-7-yl]acetamide [Compound 11]”, the “IC50 [log10 M] (mean logIC50)” value in data set [1] is listed as −7.05 ± 0.09 log10 M. Besides, the logIC50 in the data set with M006X (Human glioma) is −7.40 ± 0.09 log10 M; in the data set on M010B (Human glioma), −6.74 ± 0.08 log10 M; in data set [2] it was −6.47 ± 0.12 log10 M; in data set [3], −7.23 ± 0.09 log10 M; in data set [4], −7.05 ± 0.04 log10 M; in data set [5] it was −7.45 ± 0.09 log10 M.

For `COc1cc2c(c(OCC(C)C)c1OC)-c1ccc(OC)c(=O)cc1[C@@H](NC(C)=O)CC2` [Compound 7a, N-[(7S)-2,3,10-trimethoxy-1-(2-methylpropoxy)-9-oxo-5,6,7,9-tetrahydrobenzo[α]heptalen-7-yl]acetamide], in data set [1], the “cytotoxicity compared with colchicine” value is “moderately better than colchicine”. Also, the “IC50 [log10 M] (mean logIC50)” value in data set [1] is −6.53 ± 0.10 log10 M. The “Fraction of cells that survive” value in the data set with M006X (Human glioma) came to 0.197 ± 0.024; in the data set with M010B (Human glioma), 0.239 ± 0.031; in data set [2], 0.222 ± 0.026; in data set [3], 0.051 ± 0.032; in data set [4], 0.406 ± 0.014; in data set [5], 0.022 ± 0.020. The logIC50 in the data set with M006X (Human glioma) is on record as −7.12 ± 0.06 log10 M; with M010B (Human glioma), −6.60 ± 0.14 log10 M; in data set [2], −6.52 ± 0.13 log10 M; in data set [3], −6.66 ± 0.11 log10 M; in data set [4], −6.17 ± 0.06 log10 M; in data set [5], −6.76 ± 0.08 log10 M.

Turning to “N-[(7S)-2,3,10-trimethoxy-1-((methyl)cyclohexane)-9-oxo-5,6,7,9-tetrahydrobenzo[α]heptalen-7-yl]acetamide [Compound 16]”, the “IC50 [log10 M] (mean logIC50)” value in data set [1] is reported as −5.26 ± 0.09 log10 M. In addition, the logIC50 with M006X (Human glioma) is given as −5.44 ± 0.12 log10 M; in the data set on M010B (Human glioma), −5.20 ± 0.08 log10 M; in data set [2], −4.95 ± 0.07 log10 M; in data set [3] it was −5.33 ± 0.11 log10 M; in data set [4] it was −5.22 ± 0.08 log10 M; in data set [5], −5.53 ± 0.10 log10 M.

Turning to `C=CCOc1c(OC)c(OC)cc2c1-c1ccc(OC)c(=O)cc1[C@@H](NC(C)=O)CC2` [Compound 9], in data set [1], the “cytotoxicity compared with colchicine” value was “moderately better than colchicine”. Besides, in data set [1], the “IC50 [log10 M] (mean logIC50)” value is recorded as −7.15 ± 0.08 log10 M. Moreover, the “Fraction of cells that survive” value is given as 0.037 ± 0.015 in the data set on M006X (Human glioma); 0.299 ± 0.017 in the data set with M010B (Human glioma); 0.227 ± 0.021 in data set [2]; 0.082 ± 0.018 in data set [3]; 0.484 ± 0.009 in data set [4]; −0.004 ± 0.015 in data set [5]. The logIC50 in the data set on M006X (Human glioma) is reported as −7.47 ± 0.09 log10 M; in the data set on M010B (Human glioma) it was −6.74 ± 0.08 log10 M; in data set [2], −6.66 ± 0.10 log10 M; in data set [3], −7.35 ± 0.09 log10 M; in data set [4], −7.10 ± 0.05 log10 M; in data set [5], −7.46 ± 0.08 log10 M.
